Columns and labels:
[1] = system: AhR; conditions: cultured mammal cell; cited from earlier work
[2] = system: AhR-GUS and AhRV-GUS transformed tobacco plant (mouse AhR/AhRV, Arnt, XRE-GUS); test: GUS activity in transformed tobacco plants (AhR-GUS / AhRV-GUS) treated with AhR-ligand; type: in vivo, Nicotiana tabacum cv. Sumsun N N; conditions: for enhancement of the GUS activity in the presence of AhR-ligands: medium with 25 μM 20-MC, 25 μM β-NF, 50 μM indigo, stem and leaf soluble protein, FIG. 10
Excerpt: A AhR-ligand specific gene expression system for plants was constructed. It was constructed by introducing a AhR, Arnt and XRE to a plant. From a liver cDNA library prepared from C57BL/6 mouse, an AhR cDNA (Schmidt, J. V., et al, 1993) and an Arnt cDNA (Reisz-Porszasz, S., et al, 1994) were cloned. In order to constitutively express both cDNAs in a plant, there were constructed two kinds of plant expression plasmids pSKA2G and pSKAvAtG. The plasmids comprising a tandemly aligned XRE sequence, a transcription factor expression unit (i.e. the first transcription structure) inserted in an expression unit composed of a cauliflower mosaic virus 35S promoter (CaMV35S-P) and a nopaline synthase terminator (Nos-T), and a reporter unit composed of a reporter gene and Nos-T (structures are shown in FIG. 7). The PSKAvAtG contains a chimera AhR (AhRV) in which transcriptional activation domain of AhR is substituted with VP16 transcriptional activation domain (AhRV gene). Using Agrobacterium with each plasmid introduced therein, a tobacco plant (Nicotiana tabacum cv. Sumsun N N) was transformed by a leaf disc method.
The plants which had been introduced with each plant expression plasmid were selected two times by antibiotic kanamycin. Each genomic DNA was extracted from re-differentiated individuals after kanamycin selection, and genomic PCR analysis was performed using primers specific for each of AhR or AhRV, Arnt and GUS.
The plant transformed with either pSKA2G or pSKAvAtG is designated as AhR-GUS or AhRV-GUS plants, respectively. Axillary buds were removed from all transformed plants. […] Then the soluble protein fractions were extracted from stem and leaf parts of the grown buds, and the GUS activities of the fractions were measured. The medium were added with 0.01% Tween 20 and an AhR-ligand (20-MC) or a solvent DMSO solution to a final concentration of 0.1%. Similarly, a axillary bud was cultured for 2 weeks on an MS medium in the presence of various concentrations (8 grades) of AhR-ligand 20 MC. The AhR-ligand dose dependent expression of the reporter was analyzed. In addition, similarly, a axillary bud was cultured for 2 weeks on an MS medium containing 25 μM 20-MC, and tissue-specific expression of a reporter in a plant was analyzed using a GUS staining method. That is, each tissue of a plant was impregnation-treated in a X-Gluc solution (0.1M sodium phosphate buffer, pH 7.0, 1.9 mM X-glucuronide, 0.5 mM K3Fe(CN)6, 0.5 mM K4Fe(CN)6, 0.3% (v/v) Triton X-100, 20% methanol) under reduced pressure, then incubated at 37° C. overnight, and 70% ethanol was added to stop the reaction. Thereafter, decoloration was performed in 70% ethanol, and the tissue was observed under an optical microscope or stereomicroscope.

[3] = system: LexA operator promoter-LacZ reporter unit in yeast L40 strain expressing XDV/XVD (mouse AhR-ligand binding control region); test: Yeast reporter assay system for XDV/XVD (LacZ activity); type: cell-based; conditions: yeast introduced with XDV/XVD, FIG. 6
Description: Yeasts introduced with various XDV/XVD expression plasmids were pre-cultured overnight in a liquid selective medium containing glucose as a carbon source, cultured for 14 to 16 hours in a liquid selective medium containing an AhR-ligand and galactose(as a carbon source), and the LacZ activity was measured.
By using a reporter gene assay system using a yeast expression system, assessment of performance of XDV/XVD was performed.
An yeast L40 strain having a reporter unit composed of a LexA operator promoter and a β-galactosidase gene (LacZ) in a chromosome [(MATa his3Δ200 trp1-901 leu2-3112 ade2 LYS2:: (41exAop-HIS3)URA3:: (81exAop-lacZ)GAL4) (Invitrogen, Netherland)) was transformed, and assessed by the LacZ activity dependent on the expression of XDV/XVD and ligand treatment as an index. […]
Various AhR-ligands (dioxins) were dissolved in DMSO (a final concentration of DMSO in a medium was adjusted at 0.1%). […] An absorbance at 415 nm of the supernatant was measured. A LacZ unit was calculated by the following calculation equation:
LacZ unit=absorbance at 415 nm/[absorbance at 600 nm of a diluted cultured yeast solution in which 200 μL of cultured yeast solution was diluted up to 1 mL]×reaction time (min)]×1000

Compound	TCDD concentration detectable [1] [ppb]	GUS staining of tissues (X-Gluc) ([2]; 2 weeks on MS medium containing 25 μM 20-MC, leaf and stem, FIG. 12 B)	20-MC concentration in a medium that can be detected by the transformed plant ([2]; axillary bud cultured 2 weeks on MS medium, 8 grades of 20-MC) [nM]	GUS activity dependent on AhR-ligand treatment, line 4 and line 21 of AhRV-GUS plant ([2]; line 4 and line 21 of the AhRV-GUS plant, stronger than GUS under CaMV 35S-P, FIG. 9)	enhancement of the GUS activity in the presence of AhR-ligands [2]	LacZ activity on AhR-ligand treatment, in words [3]
Clc1cc2c(cc1Cl)Oc1cc(Cl)c(Cl)cc1O2 [TCDD, 2,3,7,8-TCDD]	0.01	–	–	–	–	–
Cc1ccc2cc3c(ccc4ccccc43)c3c2c1CC3 [20-MC, 20-methylcholanthrene]	–	remarkable expression of a GUS reporter gene	5	very strong enhancement of the GUS activity	remarkable	–
O=c1cc(-c2ccccc2)oc2ccc3ccccc3c12 [β-NF, β-naphthoflovone]	–	–	–	–	remarkable	enhancement of the LacZ activity was recognized

Reference: US20040043394A1, “Gene expression element specific for Ah receptor ligands and heterologous gene expression systems dependent on the element” (priority 2002, published 2004)
